# In ChEMBL document CHEMBL1687870, “Antimicrobial isopropenyl-dihydrofuranoisoflavones from Crotalaria lachnophora” (2011):
# Active and inactive are the calls of the source. No cut-off for these calls is given here.
# What was measured:
# Aspergillus niger = test: Antifungal activity against Aspergillus niger DSM 1988 after 48 hrs by disk diffusion method; type: functional, organism-based
# Staphylococcus aureus = test: Antimicrobial activity against Staphylococcus aureus DSM 799 at 1 ug/ul after 24 hrs by disk diffusion method; type: functional
# Pseudomonas aeruginosa = test: Antimicrobial activity against Pseudomonas aeruginosa DSM 1128 at 1 ug/ul after 24 hrs by disk diffusion method; type: functional
# Klebsiella pneumoniae = test: Antimicrobial activity against Klebsiella pneumoniae DSM 681 at 1 ug/ul after 24 hrs by disk diffusion method; type: functional
# Candida albicans = test: Antifungal activity against Candida albicans DSM 1386 after 24 hrs by disk diffusion method; type: functional, organism-based
# Escherichia coli = test: Antimicrobial activity against Escherichia coli DSM 682 after 24 hrs by disk diffusion method; type: functional
Compound,Activity (Aspergillus niger),Activity (Staphylococcus aureus),Activity (Pseudomonas aeruginosa),diameter of the inhibition zone (DIZ) (Klebsiella pneumoniae),Activity (Candida albicans),diameter of the inhibition zone (DIZ) (Escherichia coli),diameter of the inhibition zone (DIZ) (Staphylococcus aureus),diameter of the inhibition zone (DIZ) (Pseudomonas aeruginosa),inhibition zone (IZ) (Staphylococcus aureus),inhibition zone (IZ) (Pseudomonas aeruginosa),inhibition zone (IZ) (Klebsiella pneumoniae),inhibition zone (IZ) (Escherichia coli)
C[C@@H]1O[C@@H](Oc2cc(O)c3c(=O)cc(-c4ccc(O)c(O)c4)oc3c2)[C@H](O)[C@H](O)[C@H]1O,inactive,inactive,inactive,7.7 mm,inactive,10.7 mm,–,–,–,–,–,–
O=c1c(-c2ccc(O)cc2O)coc2cc(O)cc(O)c12,inactive,inactive,inactive,7 mm,inactive,7 mm,–,–,–,–,–,–
C=C(C)C1Cc2c(O)cc3occ(-c4ccc(O)cc4O)c(=O)c3c2O1 (racemic),inactive,inactive,inactive,7 mm,inactive,8.3 mm,–,–,–,–,–,–
COc1cc(-c2coc3cc(O)cc(O)c3c2=O)ccc1O [3'-O-METHYLOROBOL],inactive,inactive,inactive,8.3 mm,inactive,7 mm,–,–,–,–,–,–
COc1cc2occ(-c3ccc(O)cc3)c(=O)c2c(O)c1OC [7-O-METHYLTECTORIGENIN],inactive,inactive,inactive,7 mm,inactive,9.3 mm,–,–,–,–,–,–
CC1(C)S[C@@H]2[C@H](NC(=O)[C@H](N)c3ccccc3)C(=O)N2[C@H]1C(=O)O [AMPICILLIN],–,inactive,inactive,11.7 mm,–,24.3 mm,–,–,–,–,–,–
COc1cc(O)c2c(=O)c(-c3ccc(O)cc3O)coc2c1 [CAJANIN],inactive,inactive,inactive,9.7 mm,inactive,7.3 mm,–,–,–,–,–,–
COc1cc(O)c2c(c1)OC[C@H](c1ccc(O)cc1OC)C2=O [CAJANOL],inactive,inactive,inactive,9.3 mm,inactive,7.3 mm,–,–,–,–,–,–
C=C(C)C1Cc2c(cc3oc4oc5cc(O)ccc5c4c(=O)c3c2O)O1 (stereo unspecified) [LACHNOISOFLAVONE B],inactive,inactive,inactive,7.3 mm,inactive,7 mm,–,–,–,–,–,–
C=C(C)[C@H]1Cc2c(cc3occ(-c4ccc(O)cc4)c(=O)c3c2O)O1 [LICOAGROISOFLAVONE],inactive,inactive,inactive,9.3 mm,inactive,7.3 mm,–,–,–,–,–,–
COc1cc(O)c2c(=O)c(-c3ccc(O)cc3)coc2c1 [PRUNETIN],inactive,inactive,inactive,9.3 mm,inactive,7.3 mm,–,–,–,–,–,–
CN[C@@H]1[C@H](O[C@H]2[C@H](O[C@H]3[C@H](O)[C@@H](O)[C@H](N=C(N)N)[C@@H](O)[C@@H]3N=C(N)N)O[C@@H](C)[C@]2(O)C=O)O[C@@H](CO)[C@H](O)[C@H]1O [STREPTOMYCIN],–,inactive,inactive,21.3 mm,–,19.3 mm,–,–,–,–,–,–
CN(C)[C@@H]1C(O)=C(C(N)=O)C(=O)[C@@]2(O)C(O)=C3C(=O)c4c(O)cccc4[C@@](C)(O)[C@H]3C[C@@H]12 [TETRACYCLINE],–,–,–,26.3 mm,–,22.3 mm,20.7 mm,17.7 mm,–,–,–,–
GENTAMICIN,–,–,–,–,–,–,–,–,15.3 mm,20.3 mm,14.3 mm,16.3 mm
